Assay results published in ChEMBL document CHEMBL5154808, “Novel β-Hairpin Antimicrobial Peptides Containing the β-Turn Sequence of -RRRF- Having High Cell Selectivity and Low Incidence of Drug Resistance” (J Med Chem, 2022).
Converted amounts (≈) assume the structure as drawn. The source made the active and inactive calls. The calls are words filed in the database; no cut-off is given here. Where a SMILES comes first, the peptide text is derived from it. Bridges are numbered along the chain shown (N, C = ends). [ ]: non-standard residue; d: D form. The star is where a group is joined. X1 = CC[C@H](C)CCCCC(=O)*; Dab = NCC[C@H](N)C(=O)O

What was measured:
Staphylococcus aureus [1] = experiment: Antimicrobial activity against Staphylococcus aureus ATCC 25923 assessed as reduction of bacterial growth incubated for 18 hrs by CLSI protocol based broth microdilution method; assay type: functional
Bacillus subtilis = experiment: Antimicrobial activity against Bacillus subtilis ATCC 23857 assessed as reduction of bacterial growth incubated for 18 hrs by CLSI protocol based broth microdilution method; assay type: functional
[2] = tested on: Staphylococcus epidermidis; experiment: Antimicrobial activity against Staphylococcus epidermidis ATCC 12228 assessed as reduction of bacterial growth incubated for 18 hrs by CLSI protocol based broth microdilution method; assay type: functional
Enterococcus faecalis = experiment: Antimicrobial activity against Enterococcus faecalis ATCC 29212 assessed as reduction of bacterial growth incubated for 18 hrs by CLSI protocol based broth microdilution method; assay type: functional
Klebsiella pneumoniae = experiment: Antimicrobial activity against Klebsiella pneumoniae ATCC 700603 assessed as reduction of bacterial growth incubated for 18 hrs by CLSI protocol based broth microdilution method; assay type: functional
Escherichia coli [3] = experiment: Antimicrobial activity against Escherichia coli ATCC 25922 assessed as reduction of bacterial growth incubated for 18 hrs by CLSI protocol based broth microdilution method; assay type: functional
Pseudomonas aeruginosa = experiment: Antimicrobial activity against Pseudomonas aeruginosa ATCC 27853 assessed as reduction of bacterial growth incubated for 18 hrs by CLSI protocol based broth microdilution method; assay type: functional
Staphylococcus aureus [4] = experiment: Induction of drug resistance in Staphylococcus aureus ATCC 25923 assessed as fold increase in MIC after 5 passages by CLSI protocol based broth microdilution method; assay type: functional; conditions: time 18.0 hrs
Escherichia coli [5] = experiment: Induction of drug resistance in Escherichia coli ATCC 25922 assessed as increase in MIC measured after 20 passages by CLSI protocol based broth microdilution method; assay type: functional; conditions: time 18.0 hrs
Staphylococcus aureus [6] = experiment: Antimicrobial activity against kanamycin-resistant Staphylococcus aureus ATCC 25923; assay type: functional
Escherichia coli [7] = experiment: Antimicrobial activity against kanamycin-resistant Escherichia coli ATCC 25922; assay type: functional
Erythrocyte = experiment: Hemolytic activity in mouse red blood cells assessed as release of hemoglobin incubated for 1 hr by microplate reader method; assay type: toxicity, cell-based
[8] = Cytotoxicity against human HK-2 cells assessed as reduction in cell viability incubated for 1 hr by resazurin based microplate reader method; assay type: toxicity
Staphylococcus aureus [9] = experiment: Induction of drug resistance in Staphylococcus aureus ATCC 25923 assessed as increase in MIC after 10 passages by CLSI protocol based broth microdilution method; assay type: functional
[10] = Acute toxicity in Kunming mouse assessed as respiratory depression in lungs by measuring mortality at 19 to 30 mg/kg, ip within 1 hr; assay type: organism-based; conditions: in vivo, dose 19-30 mg/kg
Staphylococcus aureus [11] = experiment: Antibacterial activity against Staphylococcus aureus ATCC 25923 infected in BALB/c mouse assessed as reduction in bacterial load in lung at 5 to 10 mg/kg, ip measured after 4 to 12 hrs (reference value: 5.6 x 10^6 CFU/g); assay type: functional; conditions: dose 5-10 mg/kg, time 4-12 hrs
Escherichia coli [12] = experiment: Synergistic antibacterial activity against kanamycin-resisitant Escherichia coli ATCC 25922 assessed as fractional inhibitory concentration index incubated for 18 hrs in presence of kanamycin by checker board assay; assay type: functional
Escherichia coli [13] = experiment: Synergistic antibacterial activity against meropenem-resistant Escherichia coli ATCC 25922 assessed as fractional inhibitory concentration index incubated for 18 hrs in presence of meropenem by checker board assay; assay type: functional
Escherichia coli [14] = experiment: Synergistic antibacterial activity against rifampicin-resistant Escherichia coli ATCC 25922 assessed as fractional inhibitory concentration index incubated for 18 hrs in presence of rifampicin by checker board assay; assay type: functional
Staphylococcus aureus [15] = experiment: Synergistic antibacterial activity against rifampicin-resistant Staphylococcus aureus ATCC 25923 assessed as fractional inhibitory concentration index incubated for 18 hrs in presence of rifampicin by checker board assay; assay type: functional
Escherichia coli [16] = experiment: Antimicrobial activity against Escherichia coli ATCC 25922 assessed as swollen cell membrane measured after 0.5 to 2 hrs by SEM analysis; assay type: functional, organism-based; conditions: time 0.5-2 hrs
Escherichia coli [17] = experiment: Antimicrobial activity against Escherichia coli ATCC 25922 assessed as breakage of cell membrane measured after 4 hrs by SEM analysis; assay type: functional, organism-based
Staphylococcus aureus [18] = experiment: Bactericidal activity against Staphylococcus aureus ATCC 25923 assessed as time required to kill bacteria at 2 times MIC by time-killing assay; assay type: functional
Lipopolysaccharide (LPS) = experiment: Binding affinity to LPS (unknown origin) assessed as reduction in bactericidal activity against Escherichia coli ATCC 25922 at 2 times MIC incubated for 2 hrs in presence of 32 ug/ml of LPS by competitive binding assay
Cell membrane [19] = experiment: Induction of inner membrane permeabilization in Escherichia coli ML-35 ATCC 43587 at 1 to 4 times MIC by ONPG based assay; conditions: DDE = dose-dependent effect
Cell membrane [20] = experiment: Induction of cytoplasmic membrane depolarization in […] assessed as increase in fluorescence intensity at 1 to 4 times MIC measured after 1 min by DiSC3-5 dye based fluorescence method; assay type: subcellular
Cell membrane [21] = experiment: Induction of cytoplasmic membrane depolarization in Pseudomonas aeruginosa ATCC 27853 assessed as increase in fluorescence intensity at 1 to 4 times MIC measured after 1 min by DiSC3-5 dye based fluorescence method; assay type: subcellular
Cell membrane [22] = experiment: Induction of cytoplasmic membrane depolarization in Staphylococcus aureus ATCC 25923 assessed as increase in fluorescence intensity at 4 times MIC measured after 1 min by DiSC3-5 dye based fluorescence method; assay type: subcellular
[23] = Acute toxicity in ip dosed Kunming mouse assessed as lethal dose; assay type: organism-based; conditions: in vivo
[24] = Acute toxicity in Kunming mouse assessed as pulmonary congestion at 25 mg/kg, ip by H and E staining based analysis; assay type: organism-based; conditions: in vivo
[25] = Acute toxicity in Kunming mouse assessed as distortion of alveolar morphology at 25 mg/kg, ip by H and E staining based analysis; assay type: organism-based; conditions: in vivo
[26] = Acute toxicity in Kunming mouse assessed as increased interalveolar space at 25 mg/kg, ip by H and E staining based analysis; assay type: organism-based; conditions: in vivo
[27] = Acute toxicity in Kunming mouse assessed as swollen kidney cells at 25 mg/kg, ip by H and E staining based analysis; assay type: organism-based; conditions: in vivo

Row | Compound | MIC (Staphylococcus aureus [1]) [µM] | MIC (Bacillus subtilis) [µM] | MIC [2] [µM] | MIC (Enterococcus faecalis) [µM] | MIC (Klebsiella pneumoniae) [µM] | MIC (Escherichia coli [3]) [µM] | MIC (Pseudomonas aeruginosa) [µM] | Activity (Escherichia coli [5]) | HC10 (Erythrocyte) [µM] | CC50 at 1 h [8] [µM] | also measured
1 | NC[C@H]1O[C@H](O[C@H]2[C@H](O)[C@@H](O[C@H]3O[C@H](CO)[C@@H](O)[C@H](N)[C@H]3O)[C@H](N)C[C@@H]2N)[C@H](O)[C@@H](O)[C@@H]1O [KANAMYCIN] | < 1 | < 1 | > 128 | 16 (≈ 7.75 µg/mL) | 64 (≈ 31 µg/mL) | 4 (≈ 1.94 µg/mL) | > 128 | Active |  |  | fold change (FC) (Staphylococcus aureus [4]): 64; MIC (Staphylococcus aureus [6]): 1020 µM (≈ 496 µg/mL); MIC (Escherichia coli [7]): 1020 µM (≈ 496 µg/mL)
2 | CO[C@H]1/C=C/O[C@@]2(C)Oc3c(C)c(O)c4c(O)c(c(/C=N/N5CCN(C)CC5)c(O)c4c3C2=O)NC(=O)/C(C)=C\C=C\[C@H](C)[C@H](O)[C@@H](C)[C@@H](O)[C@@H](C)[C@H](OC(C)=O)[C@@H]1C [RIFAMPIN] | < 1 | < 1 | < 1 | < 1 | 32 (≈ 26.3 µg/mL) | 4 (≈ 3.29 µg/mL) | 32 (≈ 26.3 µg/mL) | Active |  |  | fold change (FC) (Staphylococcus aureus [4]): 64
3 | CC[C@H](C)[C@H](N)C(=O)N[C@@H](CCCNC(=N)N)C(=O)N[C@H](C(=O)N[C@@H](CCCNC(=N)N)C(=O)N[C@@H](CS)C(=O)N[C@@H](CCCNC(=N)N)C(=O)N[C@@H](CCCNC(=N)N)C(=O)N[C@@H](CCCNC(=N)N)C(=O)N[C@@H](Cc1ccccc1)C(=O)N[C@@H](CS)C(=O)N[C@@H](CCCNC(=N)N)C(=O)N[C@H](C(=O)N[C@@H](CCCNC(=N)N)C(=O)N[C@H](C(N)=O)[C@@H](C)CC)[C@@H](C)CC)[C@@H](C)CC (H-IRIRCRRRFCRIRI-NH2) | 8 (≈ 15.3 µg/mL) | 4 (≈ 7.67 µg/mL) | 4 (≈ 7.67 µg/mL) | 16 (≈ 30.7 µg/mL) | 8 (≈ 15.3 µg/mL) | 8 (≈ 15.3 µg/mL) | 4 (≈ 7.67 µg/mL) |  | > 256 | 37.1 | 
4 | C[C@@H](O)[C@H]1C(=O)N2C(C(=O)O)=C(S[C@@H]3CN[C@H](C(=O)N(C)C)C3)[C@H](C)[C@H]12 [MEROPENEM] | < 1 | < 1 | < 1 | 16 (≈ 6.14 µg/mL) | < 1 | < 1 | 2 (≈ 0.767 µg/mL) | Active |  |  | Activity (Staphylococcus aureus [9]): Active
5 | CC[C@H](C)CCCCC(=O)N[C@@H](CCN)C(=O)N[C@H](C(=O)N[C@@H](CCN)C(=O)N[C@H]1CCNC(=O)[C@H]([C@@H](C)O)NC(=O)[C@H](CCN)NC(=O)[C@H](CCN)NC(=O)[C@H](CC(C)C)NC(=O)[C@@H](Cc2ccccc2)NC(=O)[C@H](CCN)NC1=O)[C@@H](C)O (X1-[Dab]T[Dab][Dab][Dab][dF]L[Dab][Dab]T; lactam 4-C) | 16 (≈ 19.3 µg/mL) | 4 (≈ 4.81 µg/mL) | 16 (≈ 19.3 µg/mL) | 128 (≈ 154 µg/mL) | 4 (≈ 4.81 µg/mL) | 4 (≈ 4.81 µg/mL) | 2 (≈ 2.41 µg/mL) |  | > 256 | > 128 | Activity [10]: Toxic; Activity (Staphylococcus aureus [11]): 0 CFU/g; Activity (Staphylococcus aureus [9]): Active; fractional inhibitory concentration index (FICI) (Escherichia coli [12]): 0.25; fractional inhibitory concentration index (FICI) (Escherichia coli [13]): 1.25; fractional inhibitory concentration index (FICI) (Escherichia coli [14]): 0.3125; fractional inhibitory concentration index (FICI) (Staphylococcus aureus [15]): 0.75; Activity (Escherichia coli [16]): Active; Activity (Escherichia coli [17]): Active; Time (Staphylococcus aureus [18]): 6 h; Activity (Lipopolysaccharide (LPS)): Active; Activity (Cell membrane [19]): Dde; Activity (Cell membrane [20]): Active; Activity (Cell membrane [21]): Active; Activity (Cell membrane [22]): Active; LD50 [23]: 25.5 mg/kg; Activity [24]: Toxic; Activity [25]: Toxic; Activity [26]: Toxic; Activity [27]: Toxic
6 | H-FRFRRRRFRFRF-NH2 | 4 | 2 | 4 | 16 | 8 | 8 | 8 |  | 237 | 42 | 
7 | H-WKWKRRRFKWKW-NH2 | 4 | 2 | 4 | 16 | 8 | 4 | 4 |  | > 256 | 120 | 
8 | H-RIRIRRRFIRIR-NH2 | 8 | 4 | 4 | 32 | 64 | 8 | 16 |  | > 256 | > 128 | 
9 | H-WKWKWKRRRFKWKWKW-NH2 | 8 | 4 | 4 | 8 | 8 | 8 | 4 |  | > 256 | 10.4 | 
10 | H-LKLKRRRFKLKL-NH2 | 32 | 4 | 8 | 128 | 128 | 32 | 64 |  | > 256 | > 128 | 
